Assay results reported in patent publication US20230167127A1, “COMPOUNDS AND THEIR USE IN THE TREATMENT OF BACTERIAL INFECTION” (Hoffmann-La Roche Inc., priority 2020, published 2023).
Like-named read-outs stand apart in the source and are kept apart here.

Test system: Escherichia coli ATCC 25922
Assay: 50% growth inhibitory concentration (IC50) determination, Iso-Sensitest broth dilution
Format: cell-based
Conditions: strain Escherichia coli ATCC 25922, 10-point broth dilution, optical density at 600 nm over 16 h, read-out: Escherichia coli growth inhibition IC50
Procedure, shortened: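 10-point twofold Iso-Sensitest broth dilution (e.g. 50 to 0.097 μM final) with DMSO stocks, incubated at 35±2° C. Growth followed by OD 600 nm every 20 min over 16 h; IC50 derived from growth inhibition during logarithmic phase.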

[1] = Escherichia coli, ATCC25922, 16 h

IC50 [1] [nM]	IC50 [nM]	SMILES
< 97.7	–	NC1c2cccc(Cl)c2CC1CN1CCC2(CC1)CN(c1ccc3c(n1)NC(=O)CO3)C(=O)O2 (racemic) [Example 212, 6-[2-oxo-8-[[rac-1,2-trans-1-amino-4-chloro-2,3-dihydro-1H-inden-2-yl]methyl]-1-oxa-3,8-diazaspiro[4.5]decan-3-yl]-4H-pyrido[3,2-b][1,4]oxazin-3-one]
–	156	N#Cc1cccc2c1CC(CNC1CCC3C(C1)OC(=O)N3c1ccc3c(n1)NC(=O)CO3)C2 (racemic) [Example 31, 2-[[[rac-3a,7a-trans-6,7a-cis-2-oxo-3-(3-oxo-4H-pyrido[3,2-b][1,4]oxazin-6-yl)-3a,4,5,6,7,7a-hexahydro-1,3-benzoxazol-6-yl]amino]methyl]-2,3-dihydro-1H-indene-4-carbonitrile]
868	–	Cc1nccc2c1CC(CNCCC1CN(c3ccc4c(n3)NC(=O)CO4)C(=O)O1)C2N (racemic) [Example 130, 6-[2-oxo-5-[2-[(rac-5,6-trans-5-amino-1-methyl-6,7-dihydro-5H-cyclopenta[c]pyridin-6-yl)methylamino]ethyl]-1,3-oxazolidin-3-yl]-4H-pyrido[3,2-b][1,4]oxazin-3-one; formic acid]
382	–	CONC(=O)COc1cc(F)c2c(c1)CC(CNCCC1CN(c3cnc4c(n3)NC(=O)CO4)C(=O)O1)C2 (stereo not shown) [Example 311, 2-[[7-Fluoro-2-[[2-[2-oxo-3-(3-oxo-4H-pyrazino[2,3-b][1,4]oxazin-6-yl)-1,3-oxazolidin-5-yl]ethylamino]methyl]-2,3-dihydro-1H-inden-5-yl]oxy]-N-methoxyacetamide; formic acid]
170	–	NC(CN1CC2(C1)CN(c1ccc3c(n1)NC(=O)CO3)C(=O)O2)C1Cc2cccc(Cl)c2C1 (stereo not shown) [Example 159, 6-[2-[2-amino-2-(4-chloro-2,3-dihydro-1H-inden-2-yl)ethyl]-6-oxo-5-oxa-2,7-diazaspiro[3.4]octan-7-yl]-4H-pyrido[3,2-b][1,4]oxazin-3-one; formic acid]
< 97.7	–	COc1cc2c(c(C#N)n1)CC(CNCCC1CN(c3ccc4c(n3)NC(=O)CO4)C(=O)O1)C2 (stereo not shown) [Example 53, 3-methoxy-6-[[2-[2-oxo-3-(3-oxo-4H-pyrido[3,2-b][1,4]oxazin-6-yl)-1,3-oxazolidin-5-yl]ethylamino]methyl]-6,7-dihydro-5H-cyclopenta[c]pyridine-1-carbonitrile]
415	–	N#Cc1cccc2c1CC(N[C@H]1C[C@H](C3CN(c4ccc5c(n4)NC(=O)CO5)C(=O)O3)C1)C2 (stereo partly drawn) [Example 14, 2-[[trans-3-[2-oxo-3-(3-oxo-4H-pyrido[3,2-b][1,4]oxazin-6-yl)-1,3-oxazolidin-5-yl]cyclobutyl]amino]-2,3-dihydro-1H-indene-4-carbonitrile]
< 97.7	–	O=C1COc2ncc(N3CC(CCNCC4Cc5cncc(F)c5C4)OC3=O)nc2N1 (stereo not shown) [Example 287, 6-[5-[2-[(4-fluoro-6,7-dihydro-5H-cyclopenta[c]pyridin-6-yl)methylamino]ethyl]-2-oxo-1,3-oxazolidin-3-yl]-4H-pyrazino[2,3-b][1,4]oxazin-3-one]
< 97.7	–	N#Cc1cc(OCC2(N)CC2)cc2c1CC(CCN1CC3(C1)CN(c1ccc4c(n1)NC(=O)CO4)C(=O)O3)C2 (stereo not shown) [Example 197, 6-((1-aminocyclopropyl)methoxy)-2-(2-(6-oxo-7-(3-oxo-3,4-dihydro-2H-pyrido[3,2-b][1,4]oxazin-6-yl)-5-oxa-2,7-diazaspiro[3.4]octan-2-yl)ethyl)-2,3-dihydro-1H-indene-4-carbonitrile]
170	–	N#Cc1nccc2c1CC(CNCCC1CN(c3ccc4c(n3)NC(=O)CO4)C(=O)O1)C2 (stereo not shown) [Example 90, 6-[[2-[2-oxo-3-(3-oxo-4H-pyrido[3.2-b][1,4]oxazin-6-yl)-1,3-oxazolidin-5-yl]ethylamino]methyl]-6,7-dihydro-5H-cyclopenta[c]pyridine-1-carbonitrile; formic acid]
